From ChEMBL document CHEMBL5696442, “Discovery of type II inhibitors of TGFβ-activated kinase 1 (TAK1) and mitogen-activated protein kinase kinase kinase kinase 2 (MAP4K2)” (J Med Chem, 2015)

Tests used:
[1] = molecular target: Ribosomal protein S6 kinase alpha-1 (Homo sapiens) (UniProt Q15418); assay: Inhibition of RSK1 domain1 Lys1 labeling site in human A-375 cells at 5 uM by KiNativ Profiling analysis relative to control; type: cell-based
[2] = molecular target: Mitogen-activated protein kinase kinase kinase 20 (Homo sapiens, UniProt Q9NYL2); assay: Inhibition of ZAK K1 labeling site in human Huh-7 cells at 10 uM by KiNativ Profiling analysis relative to control; type: cell-based
Mitogen-activated protein kinase kinase kinase 20, sequence (Q9NYL2 2-800 limits assumed): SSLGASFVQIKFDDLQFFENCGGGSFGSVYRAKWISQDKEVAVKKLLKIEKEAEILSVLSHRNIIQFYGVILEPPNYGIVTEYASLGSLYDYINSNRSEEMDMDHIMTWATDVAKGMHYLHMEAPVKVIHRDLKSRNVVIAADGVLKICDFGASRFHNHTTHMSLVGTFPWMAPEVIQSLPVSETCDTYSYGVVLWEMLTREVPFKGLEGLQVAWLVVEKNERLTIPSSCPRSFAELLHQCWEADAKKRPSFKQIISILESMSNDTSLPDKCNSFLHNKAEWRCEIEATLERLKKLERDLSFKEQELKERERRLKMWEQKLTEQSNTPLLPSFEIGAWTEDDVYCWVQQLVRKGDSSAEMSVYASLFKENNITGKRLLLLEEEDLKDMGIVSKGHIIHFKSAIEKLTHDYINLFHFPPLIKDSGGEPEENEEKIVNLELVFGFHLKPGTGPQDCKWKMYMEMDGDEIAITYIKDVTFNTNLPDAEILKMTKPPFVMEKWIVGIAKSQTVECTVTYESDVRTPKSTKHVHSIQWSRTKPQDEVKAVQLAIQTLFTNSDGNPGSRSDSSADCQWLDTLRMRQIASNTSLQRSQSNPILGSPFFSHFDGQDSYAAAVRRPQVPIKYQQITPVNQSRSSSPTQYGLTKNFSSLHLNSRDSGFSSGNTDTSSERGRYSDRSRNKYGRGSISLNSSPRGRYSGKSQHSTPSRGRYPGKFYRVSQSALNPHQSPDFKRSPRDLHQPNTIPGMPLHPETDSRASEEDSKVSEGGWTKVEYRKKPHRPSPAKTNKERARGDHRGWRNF

[3] = Inhibition of Wnk1/2/4 ACT labeling site in human Huh-7 cells at 1 uM by KiNativ Profiling analysis relative to control; settings: condition cancer
[4] = molecular target: T1, Serine/threonine-protein kinase 3 (Homo sapiens) (UniProt Q13188); assay: Inhibition of MST2 K1 labeling site in human Huh-7 cells at 1 uM by KiNativ Profiling analysis relative to control; type: cell-based
T1 sequence (whole entry): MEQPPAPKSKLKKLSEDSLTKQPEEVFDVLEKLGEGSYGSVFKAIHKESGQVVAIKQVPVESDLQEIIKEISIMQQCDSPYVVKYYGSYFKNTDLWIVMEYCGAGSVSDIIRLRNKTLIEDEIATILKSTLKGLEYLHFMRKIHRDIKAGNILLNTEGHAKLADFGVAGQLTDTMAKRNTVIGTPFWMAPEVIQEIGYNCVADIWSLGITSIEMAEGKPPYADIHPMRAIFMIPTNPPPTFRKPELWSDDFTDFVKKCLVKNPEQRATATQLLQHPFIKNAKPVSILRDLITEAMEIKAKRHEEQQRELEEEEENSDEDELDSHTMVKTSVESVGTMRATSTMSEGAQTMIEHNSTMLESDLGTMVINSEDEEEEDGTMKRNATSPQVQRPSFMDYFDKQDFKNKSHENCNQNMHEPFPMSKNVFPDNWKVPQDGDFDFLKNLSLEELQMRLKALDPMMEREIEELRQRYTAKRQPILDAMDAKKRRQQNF

[5] = system: Receptor-type tyrosine-protein kinase FLT3 (Homo sapiens), P36888 [UNDEFINED MUTATION]; assay: Inhibition of FLT3 ITD mutant (unknown origin) at 10 uM by Ambit Kinomescan binding assay relative to control
Receptor-type tyrosine-protein kinase FLT3 (Homo sapiens), P36888 [UNDEFINED MUTATION], sequence (P36888 whole entry, looked up, change not shown): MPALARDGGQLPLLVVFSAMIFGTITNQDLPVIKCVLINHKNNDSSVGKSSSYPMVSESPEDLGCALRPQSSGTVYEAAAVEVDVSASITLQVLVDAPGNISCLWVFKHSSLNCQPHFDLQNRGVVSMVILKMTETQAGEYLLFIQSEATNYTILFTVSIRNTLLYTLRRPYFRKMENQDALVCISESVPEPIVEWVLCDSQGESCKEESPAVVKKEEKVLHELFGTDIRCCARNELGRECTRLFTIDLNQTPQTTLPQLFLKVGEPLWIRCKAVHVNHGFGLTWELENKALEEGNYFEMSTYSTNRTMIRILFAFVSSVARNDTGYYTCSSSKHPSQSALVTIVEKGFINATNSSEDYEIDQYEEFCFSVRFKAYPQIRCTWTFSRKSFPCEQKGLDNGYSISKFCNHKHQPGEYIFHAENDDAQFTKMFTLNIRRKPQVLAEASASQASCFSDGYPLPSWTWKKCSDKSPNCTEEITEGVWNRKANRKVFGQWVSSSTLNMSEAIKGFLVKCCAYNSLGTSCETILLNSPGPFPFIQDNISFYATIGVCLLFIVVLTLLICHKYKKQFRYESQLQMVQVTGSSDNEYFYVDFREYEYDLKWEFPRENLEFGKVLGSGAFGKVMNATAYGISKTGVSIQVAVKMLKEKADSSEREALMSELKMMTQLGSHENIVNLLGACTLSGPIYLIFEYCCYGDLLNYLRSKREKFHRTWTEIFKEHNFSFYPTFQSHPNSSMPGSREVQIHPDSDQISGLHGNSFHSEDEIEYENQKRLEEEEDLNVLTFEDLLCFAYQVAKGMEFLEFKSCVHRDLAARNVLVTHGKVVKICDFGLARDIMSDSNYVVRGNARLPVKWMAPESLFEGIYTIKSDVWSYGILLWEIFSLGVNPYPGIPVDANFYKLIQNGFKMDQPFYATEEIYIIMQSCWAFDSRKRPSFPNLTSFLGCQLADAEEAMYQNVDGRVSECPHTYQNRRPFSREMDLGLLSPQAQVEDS

[6] = molecular target: T2, Aurora kinase A (Homo sapiens) (UniProt O14965); assay: Inhibition of AurA K2 labeling site harbouring DIKPENLLLGSAGELK in human Huh-7 cells at 10 uM by KiNativ Profiling analysis relative to control; type: cell-based
T2 sequence (whole entry): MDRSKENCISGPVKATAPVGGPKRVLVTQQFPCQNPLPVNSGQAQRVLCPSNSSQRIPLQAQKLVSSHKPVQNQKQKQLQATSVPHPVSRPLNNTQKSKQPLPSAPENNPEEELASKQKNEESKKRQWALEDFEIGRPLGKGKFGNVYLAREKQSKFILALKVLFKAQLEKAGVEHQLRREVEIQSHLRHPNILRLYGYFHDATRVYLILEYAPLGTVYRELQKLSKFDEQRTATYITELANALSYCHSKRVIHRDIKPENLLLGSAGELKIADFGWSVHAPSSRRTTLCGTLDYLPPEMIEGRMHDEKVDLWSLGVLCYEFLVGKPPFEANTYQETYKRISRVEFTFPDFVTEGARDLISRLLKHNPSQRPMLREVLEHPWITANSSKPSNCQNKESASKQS

[7] = system: MEF; assay: Inhibition of IL-1alpha induced JNK1/2 phosphorylation level in mouse MEF cells preincubated for 1 hr followed by IL-1 alpha stimulation and measured after 30 mins by Western blot analysis; type: functional, cell-based; settings: dose 0.01-10 µM
[8] = molecular target: Rho-associated protein kinase 1 (Homo sapiens) (UniProt Q13464); assay: Inhibition of ROCK1 Lys2 labeling site in human A-375 cells at 0.05 uM by KiNativ Profiling analysis relative to control; type: cell-based
Rho-associated protein kinase 1 (Homo sapiens), sequence (Q13464 2-1354 limits assumed): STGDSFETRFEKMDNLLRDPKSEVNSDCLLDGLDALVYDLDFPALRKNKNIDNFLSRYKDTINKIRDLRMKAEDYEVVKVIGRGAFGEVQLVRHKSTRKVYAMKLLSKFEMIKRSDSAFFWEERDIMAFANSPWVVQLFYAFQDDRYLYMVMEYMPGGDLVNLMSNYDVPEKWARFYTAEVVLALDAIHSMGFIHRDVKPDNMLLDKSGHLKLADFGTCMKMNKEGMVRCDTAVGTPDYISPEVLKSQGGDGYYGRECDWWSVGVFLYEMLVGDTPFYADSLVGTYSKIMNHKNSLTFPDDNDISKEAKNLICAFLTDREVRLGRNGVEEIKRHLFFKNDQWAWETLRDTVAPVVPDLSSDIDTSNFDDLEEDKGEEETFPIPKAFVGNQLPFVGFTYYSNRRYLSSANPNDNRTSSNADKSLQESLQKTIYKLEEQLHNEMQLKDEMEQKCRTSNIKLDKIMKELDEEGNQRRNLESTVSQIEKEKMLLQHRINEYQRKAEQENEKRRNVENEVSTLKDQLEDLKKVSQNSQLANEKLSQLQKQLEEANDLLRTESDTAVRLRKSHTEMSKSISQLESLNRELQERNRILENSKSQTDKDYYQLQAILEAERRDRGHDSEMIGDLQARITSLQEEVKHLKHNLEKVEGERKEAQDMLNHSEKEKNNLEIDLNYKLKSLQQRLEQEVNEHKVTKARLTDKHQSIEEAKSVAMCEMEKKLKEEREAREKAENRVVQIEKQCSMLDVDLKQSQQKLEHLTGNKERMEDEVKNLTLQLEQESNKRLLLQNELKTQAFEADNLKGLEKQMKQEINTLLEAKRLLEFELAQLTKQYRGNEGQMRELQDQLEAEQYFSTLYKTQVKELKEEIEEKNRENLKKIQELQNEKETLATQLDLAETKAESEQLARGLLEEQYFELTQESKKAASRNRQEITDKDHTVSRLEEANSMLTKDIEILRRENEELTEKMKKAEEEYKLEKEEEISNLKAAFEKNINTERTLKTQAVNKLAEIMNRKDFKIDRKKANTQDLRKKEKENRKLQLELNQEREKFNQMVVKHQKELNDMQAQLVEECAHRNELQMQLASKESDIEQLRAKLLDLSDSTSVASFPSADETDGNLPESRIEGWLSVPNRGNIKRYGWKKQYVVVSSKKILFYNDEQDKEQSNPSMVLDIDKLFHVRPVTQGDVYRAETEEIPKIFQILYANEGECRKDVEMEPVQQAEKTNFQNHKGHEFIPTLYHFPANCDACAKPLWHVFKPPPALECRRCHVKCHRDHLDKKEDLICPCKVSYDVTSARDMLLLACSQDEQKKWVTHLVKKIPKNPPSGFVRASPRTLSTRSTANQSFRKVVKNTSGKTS

[9] = molecular target: Calcium/calmodulin-dependent protein kinase type II subunit gamma (Homo sapiens) (UniProt Q13555); assay: Inhibition of CaMK2g K1 labeling site in human Huh-7 cells at 1 uM by KiNativ Profiling analysis relative to control; type: cell-based
Calcium/calmodulin-dependent protein kinase type II subunit gamma (Homo sapiens), sequence (Q13555 whole entry): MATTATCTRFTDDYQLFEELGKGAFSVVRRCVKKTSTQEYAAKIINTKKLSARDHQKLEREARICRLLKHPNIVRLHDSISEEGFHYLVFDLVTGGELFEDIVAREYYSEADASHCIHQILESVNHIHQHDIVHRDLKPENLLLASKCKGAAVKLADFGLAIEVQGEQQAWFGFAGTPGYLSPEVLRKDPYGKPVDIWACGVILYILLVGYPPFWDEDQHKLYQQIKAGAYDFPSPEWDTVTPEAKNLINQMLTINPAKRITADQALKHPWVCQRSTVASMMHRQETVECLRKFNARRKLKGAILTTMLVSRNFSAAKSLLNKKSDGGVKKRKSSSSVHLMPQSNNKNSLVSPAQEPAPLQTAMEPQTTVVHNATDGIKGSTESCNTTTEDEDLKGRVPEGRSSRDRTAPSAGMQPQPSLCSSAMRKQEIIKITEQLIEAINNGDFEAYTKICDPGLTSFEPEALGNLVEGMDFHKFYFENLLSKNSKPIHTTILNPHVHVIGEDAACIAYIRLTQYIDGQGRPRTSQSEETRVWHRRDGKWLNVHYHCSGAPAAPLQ

[10] = molecular target: T3, Phosphatidylinositol 5-phosphate 4-kinase type-2 beta (Homo sapiens) (UniProt P78356); assay: Inhibition of PIP4K2B ATP labeling site harbouring AKDLPTFKDNDFLNEGQK in human Huh-7 cell lysate at 1 uM by KiNativ Profiling analysis relative to control; type: subcellular
T3 sequence (whole entry): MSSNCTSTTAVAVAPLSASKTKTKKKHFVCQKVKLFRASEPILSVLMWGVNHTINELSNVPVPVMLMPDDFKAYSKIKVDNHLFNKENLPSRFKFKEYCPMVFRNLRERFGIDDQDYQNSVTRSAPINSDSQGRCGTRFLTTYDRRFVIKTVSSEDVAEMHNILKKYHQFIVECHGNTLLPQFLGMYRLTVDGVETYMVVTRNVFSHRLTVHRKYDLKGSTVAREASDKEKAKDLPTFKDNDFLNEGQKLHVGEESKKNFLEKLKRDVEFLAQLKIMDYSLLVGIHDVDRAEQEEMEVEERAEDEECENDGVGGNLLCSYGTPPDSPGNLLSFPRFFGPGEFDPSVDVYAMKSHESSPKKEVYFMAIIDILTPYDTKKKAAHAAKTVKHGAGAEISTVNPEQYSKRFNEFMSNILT

[11] = molecular target: Serine/threonine-protein kinase 24 (Homo sapiens) (UniProt Q9Y6E0); assay: Inhibition of MST3 Lys2 labeling site harbouring IHRDIKAANVLLSEHGEVK in human Huh-7 cell lysate at 1 uM by KiNativ Profiling analysis relative to control; type: subcellular
Serine/threonine-protein kinase 24 (Homo sapiens), sequence (Q9Y6E0 whole entry, looked up): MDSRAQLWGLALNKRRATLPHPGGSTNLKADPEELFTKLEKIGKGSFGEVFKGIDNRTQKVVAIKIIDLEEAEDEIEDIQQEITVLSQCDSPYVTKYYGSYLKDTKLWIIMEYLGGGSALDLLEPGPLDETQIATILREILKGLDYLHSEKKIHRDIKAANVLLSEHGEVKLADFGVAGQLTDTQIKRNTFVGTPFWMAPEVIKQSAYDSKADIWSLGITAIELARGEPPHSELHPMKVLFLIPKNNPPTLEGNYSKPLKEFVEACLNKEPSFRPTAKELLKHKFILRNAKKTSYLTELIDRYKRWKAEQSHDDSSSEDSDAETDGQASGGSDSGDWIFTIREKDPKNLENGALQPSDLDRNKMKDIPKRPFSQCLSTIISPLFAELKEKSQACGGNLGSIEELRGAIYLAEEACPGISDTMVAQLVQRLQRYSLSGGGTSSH

[12] = molecular target: DNA-PK/Ku70/Ku85 (Homo sapiens) (UniProt P78527+P12956+P13010); assay: Inhibition of DNAPK ATP labeling site harbouring EHPFLVKGGEDLR in human Huh-7 cell lysate at 1 uM by KiNativ Profiling analysis relative to control; type: subcellular

Ribosomal protein S6 kinase alpha-1 (Homo sapiens), sequence (Q15418 whole entry, the tested form may be a part): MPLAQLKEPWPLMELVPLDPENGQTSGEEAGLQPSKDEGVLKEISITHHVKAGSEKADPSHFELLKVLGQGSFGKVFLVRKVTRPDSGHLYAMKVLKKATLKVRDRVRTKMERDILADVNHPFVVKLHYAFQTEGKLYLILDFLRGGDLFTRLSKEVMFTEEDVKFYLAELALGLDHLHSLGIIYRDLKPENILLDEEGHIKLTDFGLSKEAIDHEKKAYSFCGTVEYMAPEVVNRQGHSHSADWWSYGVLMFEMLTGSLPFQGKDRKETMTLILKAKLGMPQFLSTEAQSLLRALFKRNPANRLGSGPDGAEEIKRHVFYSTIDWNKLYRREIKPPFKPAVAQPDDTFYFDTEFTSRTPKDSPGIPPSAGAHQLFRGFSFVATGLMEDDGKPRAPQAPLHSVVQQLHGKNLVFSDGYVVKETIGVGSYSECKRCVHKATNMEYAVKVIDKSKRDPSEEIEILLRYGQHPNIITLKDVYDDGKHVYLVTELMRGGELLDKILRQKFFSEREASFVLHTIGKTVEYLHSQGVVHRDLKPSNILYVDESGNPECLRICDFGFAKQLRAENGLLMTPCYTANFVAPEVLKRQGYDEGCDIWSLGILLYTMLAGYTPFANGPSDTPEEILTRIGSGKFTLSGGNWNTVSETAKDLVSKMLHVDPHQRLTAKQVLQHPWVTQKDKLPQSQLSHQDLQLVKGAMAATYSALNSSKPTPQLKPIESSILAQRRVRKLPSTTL

| Structure (SMILES) | inhibition [1] [%] | inhibition [2] [%] | inhibition at 1 µM [3] [%] | inhibition [4] [%] | inhibition [5] [%] | inhibition [6] [%] | inhibition [7] | inhibition [8] [%] | inhibition [9] [%] | inhibition [10] [%] | inhibition [11] [%] | inhibition [12] [%] |
| --- | --- | --- | --- | --- | --- | --- | --- | --- | --- | --- | --- | --- |
| CCN1CCN(Cc2ccc(NC(=O)c3ccc(C)c(Oc4ccnc5[nH]ccc45)c3)cc2C(F)(F)F)CC1 | -8.6 | 83.4 | 7.6 | 16.2 | 0.7 | 9.4 | Dose-Dependent Effect | 6 | -7.7 | – | – | – |
| CNc1cc(Oc2cc(C(=O)Nc3cc(N4CCN(C)CC4)cc(C(F)(F)F)c3)ccc2C)ncn1 | – | – | – | – | – | – | – | – | – | -5.5 | 15.9 | -6.7 |
